From patent US10875860B2, “Azaindenoisoquinoline compounds and uses thereof” (Purdue Research Foundation, priority 2016, dated 2020)
Read-outs that look alike come from different tables or passages of the source.

Columns and labels:
OVCAR-3 = experiment: NCI-60 cytotoxicity, OVCAR-3; conditions: Homo sapiens, OVCAR-3, read-out: Cytotoxicity (GI50) Ovarian Ovcar-3
[1] = test system: NCI-60 panel of human cancer cell lines; experiment: NCI-60 screen, mean graph midpoint over all cell lines; conditions: Homo sapiens, read-out: Cytotoxicity (GI50) MGM
UACC-62 = experiment: NCI-60 cytotoxicity, UACC-62; conditions: Homo sapiens, UACC-62, read-out: Cytotoxicity (GI50) Melanoma UACC-62
DU-145 = experiment: NCI-60 cytotoxicity, DU-145; assay type: cell-based; conditions: Homo sapiens, single determinations, Table 2, read-out: Cytotoxicity (GI50) Prostate DU-145
SF-539 = experiment: NCI-60 cytotoxicity, SF-539; conditions: Homo sapiens, SF-539, read-out: Cytotoxicity (GI50) CNS SF-539
Top1 = biological target: T1, Top1 (Homo sapiens, UniProt P11387); experiment: Top1-mediated DNA cleavage assay; assay type: biochemical; set-up: Top1 inhibitory activity level / Top1 inhibitory activity score: key to the marks not given beside the values
T1 sequence (P11387 1-765): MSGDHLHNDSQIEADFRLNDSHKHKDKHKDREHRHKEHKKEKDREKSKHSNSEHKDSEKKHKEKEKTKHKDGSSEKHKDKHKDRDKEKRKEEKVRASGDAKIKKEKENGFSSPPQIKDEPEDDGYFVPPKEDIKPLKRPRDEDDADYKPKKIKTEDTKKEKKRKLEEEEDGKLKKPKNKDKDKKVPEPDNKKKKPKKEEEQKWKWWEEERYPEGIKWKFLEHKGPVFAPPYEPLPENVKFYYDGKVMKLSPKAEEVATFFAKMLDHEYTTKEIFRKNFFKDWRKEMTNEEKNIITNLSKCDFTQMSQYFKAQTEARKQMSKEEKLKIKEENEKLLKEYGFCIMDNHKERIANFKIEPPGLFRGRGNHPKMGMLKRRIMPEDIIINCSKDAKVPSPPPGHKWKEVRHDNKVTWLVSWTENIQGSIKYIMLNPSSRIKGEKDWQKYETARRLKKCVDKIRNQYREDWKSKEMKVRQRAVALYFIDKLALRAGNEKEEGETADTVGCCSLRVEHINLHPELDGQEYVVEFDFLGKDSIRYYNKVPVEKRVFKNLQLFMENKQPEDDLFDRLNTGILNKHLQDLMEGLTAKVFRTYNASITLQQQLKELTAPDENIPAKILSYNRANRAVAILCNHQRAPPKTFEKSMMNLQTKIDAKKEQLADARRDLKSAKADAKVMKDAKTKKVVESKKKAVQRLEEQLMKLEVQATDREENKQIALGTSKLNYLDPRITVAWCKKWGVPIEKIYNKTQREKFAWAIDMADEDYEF

HCT-116 = experiment: NCI-60 cytotoxicity, HCT-116; assay type: cell-based; conditions: Homo sapiens, single determinations, Table 2, read-out: Cytotoxicity (GI50) Colon HCT-116
HOP-62 = experiment: NCI-60 cytotoxicity, HOP-62; conditions: Homo sapiens, HOP-62, read-out: Cytotoxicity (GI50) Lung HOP-62
recombinant human TDP2 = biological target: T2, recombinant human TDP2 (Homo sapiens, UniProt O95551); experiment: Recombinant Tdp2 assay; assay type: biochemical
T2 sequence (O95551 1-362): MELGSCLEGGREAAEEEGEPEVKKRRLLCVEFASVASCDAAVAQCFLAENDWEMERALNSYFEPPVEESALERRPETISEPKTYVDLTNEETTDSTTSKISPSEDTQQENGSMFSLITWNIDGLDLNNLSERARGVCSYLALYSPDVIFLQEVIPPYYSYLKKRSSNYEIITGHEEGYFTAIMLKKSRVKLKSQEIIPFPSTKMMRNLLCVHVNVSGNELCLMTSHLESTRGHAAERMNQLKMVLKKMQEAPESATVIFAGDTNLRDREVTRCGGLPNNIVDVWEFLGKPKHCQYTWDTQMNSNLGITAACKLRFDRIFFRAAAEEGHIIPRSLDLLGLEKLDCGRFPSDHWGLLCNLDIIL

MCF-7 = experiment: NCI-60 cytotoxicity, MCF-7; conditions: Homo sapiens, MCF7, read-out: Cytotoxicity (GI50) Breast MCF-7
Tdp1 = Tdp1 (Homo sapiens, UniProt Q9NUW8); experiment: Recombinant Tdp1 assay; assay type: biochemical
Sequence of Tdp1 (Q9NUW8 whole entry): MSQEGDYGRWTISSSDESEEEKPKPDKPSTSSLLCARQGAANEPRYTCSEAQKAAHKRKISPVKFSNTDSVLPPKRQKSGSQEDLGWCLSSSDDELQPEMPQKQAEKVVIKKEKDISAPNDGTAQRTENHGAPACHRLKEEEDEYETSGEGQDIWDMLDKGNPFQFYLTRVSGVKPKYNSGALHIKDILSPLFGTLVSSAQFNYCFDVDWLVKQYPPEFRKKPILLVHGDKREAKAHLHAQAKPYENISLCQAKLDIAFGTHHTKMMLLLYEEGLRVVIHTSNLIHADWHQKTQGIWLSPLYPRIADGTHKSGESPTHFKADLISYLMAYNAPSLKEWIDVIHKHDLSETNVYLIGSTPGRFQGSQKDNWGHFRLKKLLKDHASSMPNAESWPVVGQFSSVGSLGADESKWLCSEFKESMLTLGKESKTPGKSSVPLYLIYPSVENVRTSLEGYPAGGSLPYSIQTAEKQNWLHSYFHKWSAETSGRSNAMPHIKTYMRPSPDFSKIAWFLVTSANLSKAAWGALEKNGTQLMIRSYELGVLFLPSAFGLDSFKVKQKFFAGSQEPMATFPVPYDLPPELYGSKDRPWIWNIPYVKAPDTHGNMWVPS

SN12C = experiment: NCI-60 cytotoxicity, SN12C; conditions: Homo sapiens, read-out: Cytotoxicity (GI50) Renal SN12C
[2] = DNA cleavage relative to 1 μM MJ-III-65 (19) and 1 μM camptothecin (18), Table 2
[3] = determined in duplicate, Table 2, read-out: Enzyme Inhibitory Activity Tdp2 (IC50)
[4] = determined in duplicate, Table 2, read-out: Enzyme Inhibitory Activity Tdp1 (IC50)
[5] = read-out: Enzyme Inhibitory Activity Tdp1 (IC50)

Row | SMILES | Enzyme Inhibitory Activity Top1 (Top1; [2]) | IC50 (recombinant human TDP2; [3]) | IC50 (Tdp1; [4]) | GI50 (OVCAR-3) | GI50 [1] | GI50 (UACC-62) | GI50 (DU-145) | GI50 (SF-539) | GI50 (HCT-116) | GI50 (HOP-62) | GI50 (MCF-7) | Top1 inhibitory activity score (Top1; running text b88 on series 2, tested at 0.1, 1, 10 and 100 μM) | GI50 (SN12C) | IC50 (Tdp1; [5]) | Enzyme Inhibitory Activity Top1 (Top1; DNA cleavage relative to 1 μM MJ-III-65 (19) and 1 μM camptothecin (18), Table 1) | IC50 (recombinant human TDP2) | IC50 (Tdp1) | Enzyme Inhibitory Activity Top1 (Top1) | IC50 (recombinant human TDP2; semiquantitative scale, in duplicate, Table 1, read-out: Enzyme Inhibitory Activity Tdp2) | IC50 (Tdp1; semiquantitative scale, in duplicate, Table 1, read-out: Enzyme Inhibitory Activity Tdp1)
1 | COc1cnc2c(c1)C(=O)c1c-2n(CCCN2CCC(O)CC2)c(=O)c2cc(Cl)ccc12 [Compound 16d, 3-Chloro-6-(3-(4-hydroxypiperidin-1-yl)propyl)-9-methoxy-5H-pyrido[3′,2′:4,5]cyclopenta-[1,2-c]isoquinoline-5,11(6H)-dione] | ++++ | > 111000 nM | 14000 ± 1000 nM | 1420 nM | 660 nM | 190 nM | 270 nM | 430 nM | 98 nM | 94 nM | 42 nM | ++++ | – | – | – | – | – | – | – | –
2 | COc1cnc2c(c1)C(=O)c1c-2n(CCCN2CCNCC2)c(=O)c2cc(Cl)ccc12 [Compound 16e, 3-Chloro-9-methoxy-6-(3-(piperazin-1-yl)propyl)-5H-pyrido[3′,2′:4,5]cyclopenta[1,2-c]isoquinoline-5,11(6H)-dione] | + | > 111000 nM | – | 1430 nM | 580 nM | 1430 nM | 242 nM | 1330 nM | 298 nM | 200 nM | 89 nM | – | 489 nM | 20200 ± 3700 nM | – | – | – | – | – | –
3 | COc1cnc2c(c1)C(=O)c1c-2n(CCCN2CCCC2)c(=O)c2cc(Cl)ccc12 [Compound 16i, 3-Chloro-9-methoxy-6-(3-(pyrrolidin-1-yl)propyl)-5H-pyrido[3′,2′:4,5]cyclopenta[1,2-c]isoquinoline-5,11(6H)-dione] | – | – | – | – | – | – | – | – | – | – | – | – | – | 27500 ± 600 nM | – | – | – | – | – | –
4 | COc1cnc2c(c1)C(=O)c1c-2n(CCCN2CCOCC2)c(=O)c2cc(F)ccc12 [Compound 17a, 3-Fluoro-9-methoxy-6-(3-morpholinopropyl)-5H-pyrido[3′,2′:4,5]cyclopenta[1,2c]-isoquinoline-5,11(6H)-dione] | +++ | > 111000 nM | > 111000 nM | 250 nM | 269 nM | 235 nM | 341 nM | 228 nM | 115 nM | 187 nM | 44 nM | – | 320 nM | – | – | – | – | – | – | –
5 | CC[C@@]1(O)C(=O)OCc2c1cc1n(c2=O)Cc2cc3ccccc3nc2-1 [Compound 18, camptothecin, reference compound] | – | – | – | – | 40 nM | < 10 nM | – | < 10 nM | – | < 10 nM | 13 nM | – | 20 nM | – | ++++ | > 111000 nM | > 111000 nM | – | – | –
6 | COc1cc2c3c(n(CCCNCCO)c(=O)c2cc1OC)-c1cc2c(cc1C3=O)OCO2 [Compound 19, reference compound] | – | – | – | 500 nM | 210 nM | 30 nM | – | 40 nM | – | 20 nM | < 10 nM | – | < 10 nM | – | – | – | – | ++++ | 1000 to 12000 nM | 12000 to 111000 nM

Further lines, with some results ahead:

Row | Enzyme Inhibitory Activity Top1 (Top1; [2]) | IC50 (recombinant human TDP2; [3]) | IC50 (Tdp1; [4]) | SMILES | GI50 (OVCAR-3) | GI50 [1] | GI50 (UACC-62) | GI50 (DU-145) | GI50 (SF-539) | GI50 (HCT-116) | GI50 (HOP-62) | GI50 (MCF-7) | Top1 inhibitory activity score (Top1; running text b88 on series 2, tested at 0.1, 1, 10 and 100 μM) | GI50 (SN12C) | IC50 (Tdp1; [5]) | Enzyme Inhibitory Activity Top1 (Top1; DNA cleavage relative to 1 μM MJ-III-65 (19) and 1 μM camptothecin (18), Table 1) | IC50 (recombinant human TDP2) | IC50 (Tdp1) | Enzyme Inhibitory Activity Top1 (Top1) | IC50 (recombinant human TDP2; semiquantitative scale, in duplicate, Table 1, read-out: Enzyme Inhibitory Activity Tdp2) | IC50 (Tdp1; semiquantitative scale, in duplicate, Table 1, read-out: Enzyme Inhibitory Activity Tdp1)
7 | +++ | > 111000 nM | > 111000 nM | COc1cnc2c(c1)C(=O)c1c-2n(CCCN2CCOCC2)c(=O)c2cc(Cl)ccc12 [Compound 16a, 3-Chloro-9-methoxy-6-(3-morpholinopropyl)-5H-pyrido[3′,2′:4,5]cyclopenta[1,2-c]isoquinoline-5,11(6H)-dione] | 780 nM | 100 nM | 180 nM | 410 nM | 230 nM | 160 nM | 270 nM | 90 nM | – | – | – | – | – | – | – | – | –
8 | +++ | > 111000 nM | > 111000 nM | COc1cnc2c(c1)C(=O)c1c-2n(CCCn2ccnc2)c(=O)c2cc(Cl)ccc12 [Compound 16b, 6-(3-(1H-Imidazol-1-yl)propyl)-3-chloro-9-methoxy-5H-pyrido[3′,2′:4,5]cyclopenta[1,2-c]isoquinoline-5,11(6H)-dione] | 120 nM | 63 nM | 28 nM | 43 nM | 38 nM | 14 nM | 20 nM | < 10 nM | – | – | – | – | – | – | – | – | –
9 | ++ | > 111000 nM | 33300 ± 4200 nM | COc1cnc2c(c1)C(=O)c1c-2n(CCCNC(C)C)c(=O)c2cc(Cl)ccc12 [Compound 16f, 3-Chloro-9-methoxy-6-(3-(isopropylamino)propyl)-5H-pyrido[3′,2′:4,5]cyclopenta[1,2-c]isoquinoline-5,11(6H)-dione] | 1390 nM | 380 nM | 303 nM | 173 nM | 554 nM | 138 nM | 70 nM | 37 nM | – | 417 nM | – | – | – | – | – | – | –
10 | – | – | 22200 ± 6400 nM | CCNCCCn1c2c(c3ccc(Cl)cc3c1=O)C(=O)c1cc(OC)cnc1-2 [Compound 16h, 3-Chloro-9-methoxy-6-(3-(ethylamino)propyl)-5H-pyrido[3′,2′:4,5]cyclopenta[1,2-c]isoquinoline-5,11(6H)-dione] | 2130 nM | 426 nM | 532 nM | 208 nM | 506 nM | 203 nM | 122 nM | < 10 nM | – | 675 nM | – | – | – | – | – | – | –
11 | + | – | > 111000 nM | COc1cnc2c(c1)C(=O)c1c-2n(CCCN2CCN(C)CC2)c(=O)c2cc(Cl)ccc12 [Compound 16j, 3-Chloro-9-methoxy-6-(3-(4-methylpiperazin-1-yl)propyl)-5H-pyrido[3′,2′:4,5]cyclopenta[1,2-c]isoquinoline-5,11(6H)-dione] | 15100 nM | 2950 nM | 1810 nM | 3180 nM | 2150 nM | 980 nM | 950 nM | 487 nM | – | 10200 nM | – | – | – | – | – | – | –
12 | +++ | > 111000 nM | > 111000 nM | COc1cnc2c(c1)C(=O)c1c-2n(CCCn2ccnc2)c(=O)c2cc(F)ccc12 [Compound 17b, 6-(3-(1H-Imidazol-1-yl)propyl)-3-fluoro-9-methoxy-5H-pyrido[3′,2′:4,5]-cyclo-penta[1,2-c]isoquinoline-5,11(6H)-dione] | 43 nM | 33 nM | 16 nM | < 10 nM | 24 nM | < 10 nM | < 10 nM | < 10 nM | – | < 10 nM | – | – | – | – | – | – | –
